What was measured:
USP 10 (h) = USP 10 (h) (Homo sapiens, UniProt Q14694); assay: Epigenetic enzyme assay, Ubiquitin modifying enzymes; format: biochemical; conditions: 10 μM; read-out: % Inhibition of Control Values
H3K9 ac = assay: Cell-based detection methyl modifications; conditions: read-out: % Inhibition of Control Values
HDAC10 (h) = target: T1, HDAC10 (h) (Homo sapiens, UniProt Q969S8); assay: Epigenetic enzyme assay, Histone deacetylase (HDACs); format: biochemical; conditions: read-out: % Inhibition of Control Values
T1 sequence (Q969S8 1-669): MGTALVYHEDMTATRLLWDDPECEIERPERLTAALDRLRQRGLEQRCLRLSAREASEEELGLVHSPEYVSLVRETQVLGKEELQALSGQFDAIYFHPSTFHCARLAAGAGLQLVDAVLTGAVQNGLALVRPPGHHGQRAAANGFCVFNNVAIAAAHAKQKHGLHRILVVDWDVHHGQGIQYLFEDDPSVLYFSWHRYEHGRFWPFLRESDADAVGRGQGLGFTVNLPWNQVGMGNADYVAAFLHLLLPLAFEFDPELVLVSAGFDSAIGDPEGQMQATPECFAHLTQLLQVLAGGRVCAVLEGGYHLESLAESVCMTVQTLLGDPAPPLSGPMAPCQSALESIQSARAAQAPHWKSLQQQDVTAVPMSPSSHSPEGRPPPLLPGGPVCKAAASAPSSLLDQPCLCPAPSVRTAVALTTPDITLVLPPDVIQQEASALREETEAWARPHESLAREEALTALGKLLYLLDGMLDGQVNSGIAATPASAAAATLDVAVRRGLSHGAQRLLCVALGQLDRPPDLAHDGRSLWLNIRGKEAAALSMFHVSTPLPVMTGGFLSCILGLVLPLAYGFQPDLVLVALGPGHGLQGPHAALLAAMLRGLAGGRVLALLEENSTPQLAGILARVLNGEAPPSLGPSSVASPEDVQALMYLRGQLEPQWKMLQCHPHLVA

RKO-AS45-1 = assay: OncoPanel cell proliferation assay (10-day); format: cell-based, human; conditions: for EC50 / GI50 / IC50: Homo sapiens, RKOAS451, RKO-AS45-1, Colon; for EC50: read-out: Cell Count EC50; for GI50: read-out: Cell Count GI50; for IC50: read-out: Cell Count IC50
JMJD2A (h) = target: T2, JMJD2A (h) (Homo sapiens, UniProt O75164); assay: Epigenetic enzyme assay, Demethylases (KDMs); format: biochemical; conditions: read-out: % Inhibition of Control Values
T2 sequence (O75164 1-1064): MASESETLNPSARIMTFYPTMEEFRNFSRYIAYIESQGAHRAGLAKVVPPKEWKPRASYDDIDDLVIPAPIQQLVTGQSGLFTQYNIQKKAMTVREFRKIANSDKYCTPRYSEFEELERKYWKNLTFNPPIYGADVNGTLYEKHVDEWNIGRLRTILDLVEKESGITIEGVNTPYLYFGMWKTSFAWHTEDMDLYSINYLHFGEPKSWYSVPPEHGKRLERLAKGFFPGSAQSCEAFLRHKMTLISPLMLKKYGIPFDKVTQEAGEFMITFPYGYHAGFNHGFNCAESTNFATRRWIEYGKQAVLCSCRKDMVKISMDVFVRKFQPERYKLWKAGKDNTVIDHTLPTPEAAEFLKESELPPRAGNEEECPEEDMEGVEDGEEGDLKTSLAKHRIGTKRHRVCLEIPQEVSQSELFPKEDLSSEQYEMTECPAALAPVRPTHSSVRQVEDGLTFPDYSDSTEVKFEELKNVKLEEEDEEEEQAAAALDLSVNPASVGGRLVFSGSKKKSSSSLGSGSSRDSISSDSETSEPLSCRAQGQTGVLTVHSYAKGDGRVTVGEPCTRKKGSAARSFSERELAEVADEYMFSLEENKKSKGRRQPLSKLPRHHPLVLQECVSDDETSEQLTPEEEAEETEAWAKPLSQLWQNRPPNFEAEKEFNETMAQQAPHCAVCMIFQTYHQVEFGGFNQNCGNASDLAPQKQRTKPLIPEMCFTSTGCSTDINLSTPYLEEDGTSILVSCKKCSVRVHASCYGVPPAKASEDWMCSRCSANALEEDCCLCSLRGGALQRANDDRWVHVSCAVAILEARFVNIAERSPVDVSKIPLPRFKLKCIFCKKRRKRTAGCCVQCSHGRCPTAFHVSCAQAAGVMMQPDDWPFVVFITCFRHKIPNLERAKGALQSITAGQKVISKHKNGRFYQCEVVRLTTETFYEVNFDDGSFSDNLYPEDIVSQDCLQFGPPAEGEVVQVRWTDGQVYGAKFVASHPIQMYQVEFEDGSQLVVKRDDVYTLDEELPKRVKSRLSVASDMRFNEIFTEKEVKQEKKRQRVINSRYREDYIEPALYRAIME

TRIM 33 (h) PHD domain = target: T3, TRIM 33 (h) PHD domain (Homo sapiens, UniProt Q9UPN9); assay: Epigenetic binding assay, PHD domain; conditions: for inhibition at 10 µM: read-out: % Inhibition of Control Specific Binding
T3 construct: Eurofins CEREP (France), contract laboratory
T3 sequence (Q9UPN9 887-934 limits assumed): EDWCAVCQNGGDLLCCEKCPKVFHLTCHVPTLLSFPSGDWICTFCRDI

[1] = target: T4, Haspin (h) (substrate histone H3 full length) (Homo sapiens, UniProt Q8TF76); assay: Epigenetic enzyme assay, Kinases; format: biochemical; conditions: read-out: % Inhibition of Control Values
T4 sequence (Q8TF76 1-798): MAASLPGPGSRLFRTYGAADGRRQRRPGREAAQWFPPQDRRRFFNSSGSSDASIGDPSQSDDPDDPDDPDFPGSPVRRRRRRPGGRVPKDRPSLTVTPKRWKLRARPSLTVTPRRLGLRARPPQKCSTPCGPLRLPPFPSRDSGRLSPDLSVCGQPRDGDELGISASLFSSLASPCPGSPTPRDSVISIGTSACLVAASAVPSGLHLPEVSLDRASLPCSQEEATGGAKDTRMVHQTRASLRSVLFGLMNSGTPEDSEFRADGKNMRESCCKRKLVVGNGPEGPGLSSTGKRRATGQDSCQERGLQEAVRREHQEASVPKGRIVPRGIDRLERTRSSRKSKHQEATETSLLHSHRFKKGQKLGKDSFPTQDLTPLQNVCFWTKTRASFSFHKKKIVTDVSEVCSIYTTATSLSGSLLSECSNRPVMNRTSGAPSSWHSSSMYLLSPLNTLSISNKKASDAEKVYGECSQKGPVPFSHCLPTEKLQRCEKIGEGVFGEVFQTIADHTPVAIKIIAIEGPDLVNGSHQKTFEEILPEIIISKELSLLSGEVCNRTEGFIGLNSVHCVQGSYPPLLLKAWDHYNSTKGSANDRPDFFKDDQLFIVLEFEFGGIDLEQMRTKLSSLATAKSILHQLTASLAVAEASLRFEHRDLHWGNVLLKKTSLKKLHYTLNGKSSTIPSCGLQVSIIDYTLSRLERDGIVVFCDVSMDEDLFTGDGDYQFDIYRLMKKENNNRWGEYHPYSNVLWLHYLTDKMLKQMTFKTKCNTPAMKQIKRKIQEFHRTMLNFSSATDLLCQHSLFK

Chain of USP 10 (h) (Q14694 whole entry): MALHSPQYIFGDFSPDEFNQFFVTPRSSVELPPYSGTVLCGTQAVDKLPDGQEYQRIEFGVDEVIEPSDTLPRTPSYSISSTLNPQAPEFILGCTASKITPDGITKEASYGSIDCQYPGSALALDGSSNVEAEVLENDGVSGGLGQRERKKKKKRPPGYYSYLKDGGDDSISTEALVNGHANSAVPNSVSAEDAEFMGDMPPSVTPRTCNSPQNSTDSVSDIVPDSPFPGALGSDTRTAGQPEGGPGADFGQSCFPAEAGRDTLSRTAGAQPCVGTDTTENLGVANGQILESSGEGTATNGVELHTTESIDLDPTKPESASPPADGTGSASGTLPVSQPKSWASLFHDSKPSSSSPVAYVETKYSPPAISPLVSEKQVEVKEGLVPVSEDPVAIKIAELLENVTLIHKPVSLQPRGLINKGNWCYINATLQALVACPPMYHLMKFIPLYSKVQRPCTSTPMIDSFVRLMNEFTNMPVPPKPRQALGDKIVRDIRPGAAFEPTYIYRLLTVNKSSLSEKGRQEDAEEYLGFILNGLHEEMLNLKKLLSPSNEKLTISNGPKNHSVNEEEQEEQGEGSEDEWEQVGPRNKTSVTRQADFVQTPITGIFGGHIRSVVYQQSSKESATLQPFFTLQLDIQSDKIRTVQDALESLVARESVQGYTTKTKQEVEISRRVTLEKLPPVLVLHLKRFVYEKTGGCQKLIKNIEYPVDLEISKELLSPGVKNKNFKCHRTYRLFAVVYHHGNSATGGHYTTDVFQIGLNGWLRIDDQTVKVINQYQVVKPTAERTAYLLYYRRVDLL

Compound: CC(C)=CCC[C@H](CO)[C@@H]1CC[C@@H](C)c2c1cc(C)c(O)c2O [Compound 1, 7,8,18-trihydroxyserrulat-14-ene]
- inhibition at 10 µM (USP 10 (h)): 7%
- inhibition at 10 µM (H3K9 ac): 17%
- inhibition at 10 µM (HDAC10 (h)): 1%
- Relative cell count (%) Mean (RKO-AS45-1; 3.00E+00 microM): 7.6%
- Relative cell count (%) Mean (RKO-AS45-1; 3.00E+01 microM): 0.1%
- Relative cell count (%) Mean (RKO-AS45-1; 3.01E−01 microM): 90.0%
- Relative cell count (%) Mean (RKO-AS45-1; 3.01E−02 microM): 86.2%
- Relative cell count (%) Mean (RKO-AS45-1; 3.02E−03 microM): 83.7%
- Relative cell count (%) Mean (RKO-AS45-1; 9.49E+00 microM): 0.1%
- Relative cell count (%) Mean (RKO-AS45-1; 9.51E−01 microM): 72.1%
- Relative cell count (%) Mean (RKO-AS45-1; 9.52E−02 microM): 80.5%
- Relative cell count (%) Mean (RKO-AS45-1; 9.53E−03 microM): 88.3%
- Relative cell count (%) Mean (RKO-AS45-1; 9.55E−04 microM): 95.4%
- EC50 (RKO-AS45-1): 1.5 µM
- GI50 (RKO-AS45-1): 1.5 µM
- IC50 (RKO-AS45-1): 1.5 µM
- inhibition at 10 µM (JMJD2A (h)): 29%
- % Inhibition of Control Specific Binding (TRIM 33 (h) PHD domain; 10 μM): good inhibitory activity
- inhibition at 10 µM (TRIM 33 (h) PHD domain): 59%
- inhibition at 10 µM [1]: 2%

Compound: CC(C)=CCC[C@@H]1C(O)Oc2c(C)cc(O)c3c2[C@H]1CC[C@H]3C (some centres unmarked) [Compound 2, 5,18-epoxyserrulat-14-en-8,18-diol]
- inhibition at 10 µM (USP 10 (h)): 2%
- inhibition at 10 µM (H3K9 ac): 3%
- inhibition at 10 µM (HDAC10 (h)): 3%
- EC50 (RKO-AS45-1): 9.64 µM
- GI50 (RKO-AS45-1): 9.62 µM
- IC50 (RKO-AS45-1): 9.64 µM
- inhibition at 10 µM (JMJD2A (h)): -10%
- inhibition at 10 µM (TRIM 33 (h) PHD domain): 3%
- inhibition at 10 µM [1]: 11%

Compound: CC(C)=CCC[C@@H]1COc2c(C)cc(O)c3c2[C@H]1CC[C@H]3C [Compound 3, 5,18-epoxy-8-hydroxyserrulat-14-ene]
- inhibition at 10 µM (USP 10 (h)): -7%
- inhibition at 10 µM (H3K9 ac): -1%
- inhibition at 10 µM (HDAC10 (h)): 6%
- inhibition at 10 µM (JMJD2A (h)): 12%
- inhibition at 10 µM (TRIM 33 (h) PHD domain): -2%
- inhibition at 10 µM [1]: 7%

Compound: CC(C)=CCC[C@H](C)[C@@H]1CC[C@@H](C)c2c1cc(C)c(O)c2O [Compound 4, 7,8-dihydroxyserrulat-14-ene]
- EC50 (RKO-AS45-1): 12.8 µM
- GI50 (RKO-AS45-1): 12.8 µM
- IC50 (RKO-AS45-1): 12.8 µM

Reference: US11331299B2, “Medicinal use of serrulatane diterpenes” (The University of Sydney, priority 2016, dated 2022)
